What was measured:
Type in all cases: cell-based
EGFR = assay: Microsphere (Luminex) detection of tyrosine-phosphorylated EGFR in lysates of activated A431 cells; details: for detection of tyrosine phosphorylated EGFR in lysates of activated cells: anti-EGFR coated microspheres, 4G10-biotin, streptavidin-R-phycoerythrin
Description: A431 cells were grown to 80-90% confluency in T75 flasks. Cells were washed once with fresh media (37° C.). For treatment, sodium pervanadate was prepared as described above and diluted into DMEM to 1 mM final concentration. Two ml of 1 mM sodium pervanadate containing media, prewarmed to 37° C., was added per T75 flask and the cell monolayer was covered with it. Cells were incubated at 37° C. for 5 min. Activated cells were lysed and processed as described below.
For pathway specific activation of A431 cells, which overexpress the epidermal growth factor receptor (EGFR), the cells were treated with epidermal growth factor (EGF). Cells were grown to about 80-90% confluency in a T75 flask. The optimal concentration of EGF for activation of the EGFR pathway in A431 cells was determined to be 100 μM. EGF was diluted in DMEM containing 10% serum. Two ml of the diluted EGF (100 μM) was layered on top of the cell monolayer. Cells were incubated at 37° C. for 15 min for activation. Activated cells were lysed and processed as described below.
A431 cells were lysed by adding 1 ml of 1× lysis buffer (1% NP-40 and protease inhibitor cocktail in PBS), pre-chilled on ice, per T75 flask. Cells were removed by scraping with a cell scraper. Lysate was vortexed immediately after addition of lysis buffer and incubated on ice for 15 min. While incubating on ice, it was mixed by vortexing every 5 min. […]
(§1) After incubation with the lysate, liquid was drained from the bottom of plate, under vacuum, on a suction apparatus (Millipore Corporation) designed to fit these plates. […] Washed microspheres were resuspended in 100 μl of wash buffer per well and analyzed in the Luminex-100™ instrument, according to the manufacturer's instructions.
Later experiments focused on analyzing multiple proteins in another pathway simultaneously, as described below. (It will be evident that multiple proteins in the EGFR pathway or any other pathways or combinations thereof could similarly be analyzed simultaneously.)

LAT [1] = assay: Immunoprecipitation and Western analysis with biotinylated 4G10, Jurkat lysates: LAT; details: Jurkat cell lysates, treated vs untreated; FIG. 3
Description: (§2) To confirm that microspheres coated with antibodies to Lck, Zap70 and LAT captured predominantly specific proteins in cell lysates, immunoprecipitation was performed with these antibodies. Cell lysates (1×10^8 cells in 1 ml) were incubated with 2.5 μg of each antibody for 1 hr. The immune complexes were captured with Protein G conjugated sepharose (Sigma Chemicals, St. Louis, Mo.) and resolved by standard polyacrylamide gel electrophoresis (PAGE). Resolved proteins were transferred to PVDF membrane (BiORad, Hercules, Calif.) and probed with biotinylated 4G10 (1:2000 dilution in 5% non-fat powdered milk in PBS). Phosphorylated bands were finally detected by ABC Detection Reagent (Vector Laboratories, Burlingame, Calif.) and Chemiluminescent Substrate (Pierce). […] These phosphorylated proteins predominated in their respective immunoprecipitates.

Lck [2] = assay: Immunoprecipitation and Western analysis with biotinylated 4G10, Jurkat lysates: Lck; details: Jurkat cell lysates, treated vs untreated; FIG. 3
Description: as §2

LAT [3] = assay: Five-plex microsphere (Luminex) assay of tyrosine phosphorylation in activated Jurkat T-cells: LAT; details: lysate from pervanadate treated Jurkat cells, 37° C., 5 min; FIG. 2
Description: (§3) Jurkat cells were resuspended to a density of 1×10^8 cells/ml in PBS. Cells were pre-warmed to 37° C. for 15 min. To each milliliter of cell suspension, 40 μl of sodium pervanadate was added. Cells were mixed and immediately incubated at 37° C. for 5 min. Activated cells were lysed, and cell lysates were processed as described below.
(§4) For pathway specific activation, Jurkat cells were treated with anti-CD3-receptor monoclonal antibody (UCHT1) (Becton Dickenson, San Diego, Calif.). Cells were resuspended in PBS at a density of 1×10^8/ml and prewarmed to 37° C. Anti-CD3 antibody was added to a final concentration of 5 μg/ml. Cells were mixed and incubated at 37° C. for various times ranging from 5 sec to 10 min. Optimal phosphorylation of most tyrosine kinases and their substrates in the T-cell receptor pathway occurred in 5 min.
(§5) Jurkat cells were lysed by adding a volume of 2× lysis buffer (2% NP-40 and protease inhibitor cocktail (both from Roche Diagnostics, Mannheim, Germany) in PBS), pre-chilled on ice, equal to the volume of the resuspended cells. […]
as §1, with “instructions. […]” for “instructions.”

Zap70 [4] = assay: Five-plex microsphere (Luminex) assay of tyrosine phosphorylation in activated Jurkat T-cells: Zap70; details: lysate from pervanadate treated Jurkat cells, 37° C., 5 min; FIG. 2
Description: as §3, §4, §5
as §1, with “instructions. […]” for “instructions.”

Lck [5] = assay: Five-plex microsphere (Luminex) assay of tyrosine phosphorylation in activated Jurkat T-cells: Lck; details: lysate from pervanadate treated Jurkat cells, 37° C., 5 min; FIG. 2
Description: as §3, §4, §5
as §1, with “instructions. […]” for “instructions.”

Zap70 [6] = assay: Immunoprecipitation and Western analysis with biotinylated 4G10, Jurkat lysates: Zap70; details: Jurkat cell lysates, treated vs untreated; FIG. 3
Description: as §2

| Substance | optimal concentration of EGF for activation of the EGFR pathway (EGFR; 37° C., 15 min) [µM] | detection of tyrosine phosphorylated EGFR in lysates of activated cells (EGFR) | phosphorylated band of LAT in immunoprecipitate (LAT [1]) | phosphorylated band of Lck in immunoprecipitate (Lck [2]) | fluorescent signal from streptavidin-phycoerythrin, anti-LAT coated microspheres (LAT [3]) | fluorescent signal from streptavidin-phycoerythrin, anti-Zap70 coated microspheres (Zap70 [4]) | fluorescent signal from streptavidin-phycoerythrin, anti-Lck coated microspheres (Lck [5]) | phosphorylated band of Zap70 in immunoprecipitate (Zap70 [6]) |
| --- | --- | --- | --- | --- | --- | --- | --- | --- |
| epidermal growth factor [EGF] | 100 | could be detected | – | – | – | – | – | – |
| sodium pervanadate | – | could be detected | detected only in lysates from cells treated with sodium pervanadate | detected only in lysates from cells treated with sodium pervanadate | strong fluorescent signal | strong fluorescent signal | strong fluorescent signal | detected only in lysates from cells treated with sodium pervanadate |
